Experimental data: article PMC7831505, “Monosubstituted Acetophenone Thiosemicarbazones as Potent Inhibitors of Tyrosinase: Synthesis, Inhibitory Studies, and Molecular Docking” (Pharmaceuticals, 2021)
Values joined by “and” are separate entries in the source; they are usually repeats but may differ in a detail not shown here. Equal values may be shown once.

What was measured:
mushroom tyrosinase [1] = experiment: Tyrosinase enzymatic assay (diphenolase activity, dose-response IC50); format: biochemical, Agaricus bisporus; settings: for Ratio of IC50 of Kojic Acid to IC50 of TSC: mushroom tyrosinase diphenolase activity; for IC50: L-DOPA 1 mM as substrate, pH 6.8, 25 °C, n = 3
Method: In order to determine the IC50, dose–response analysis for all investigated compounds was performed. […] The enzyme was isolated from Agaricus bisporus, purchased from a local supplier in Wroclaw, and prepared as described in our previous papers, according to known procedures reported in the literature. The full description of enzyme preparation is included in the Supplementary Materials (Section 2). […] L-DOPA was dissolved in a 0.15 mM phosphoric (V) acid solution to a concentration of 5 mM. […] The isolated tyrosinase solution (0.5 mg/mL, 40,000 U/mg) was diluted 10 times in sodium phosphate buffer (0,1 M, pH 6.8). […] The optimal ionic strength and pH for tyrosinase activity were provided by 0.1 M sodium phosphate buffer (pH 6.8). […] The control sample contained the same reagents as the test samples except for the substrate. […] The concentration of L-3,4-dihydroxyphenylalanine (L-DOPA) was 1 mM in all the cases.

mushroom tyrosinase [2] = experiment: Kinetic studies of tyrosinase inhibition (Lineweaver-Burk and secondary plots); format: biochemical, Agaricus bisporus; settings: for Inhibition Mechanism / Inhibition Type: diphenolase activity of mushroom tyrosinase, L-DOPA; for Inhibition Type: Lineweaver-Burk plot; for Ki: n = 3, secondary plots, read-out: Ki ± Standard Error (inhibition constant for enzyme-inhibitor complex)
Method: The kinetics of the interaction between TSCs 1–12 and mushroom tyrosinase were determined. […] The inhibition type was determined through creation of the Lineweaver–Burk plot (double reciprocal plot), which enables easier analysis of the Michaelis–Menten plot. […] Inhibition constants Ki were determined from the secondary plots of km (Michaelis constant) versus the inhibitor concentration for competitive inhibition and by the secondary plots of the slope of the lines from the Lineweaver–Burk plot as a function of the inhibitor concentration for mixed-type inhibition. […] They were all competitive inhibitors, whereas meta- and ortho-substituted compounds were mixed inhibitors. The inhibition mechanism for the investigated compounds was also tested. […] L-DOPA was dissolved in a 0.15 mM phosphoric (V) acid solution to a concentration of 5 mM. […] The isolated tyrosinase solution (0.5 mg/mL, 40,000 U/mg) was diluted 10 times in sodium phosphate buffer (0,1 M, pH 6.8). […] The optimal ionic strength and pH for tyrosinase activity were provided by 0.1 M sodium phosphate buffer (pH 6.8). […] The control sample contained the same reagents as the test samples except for the substrate. […] (b) Secondary plot of km versus inhibitor concentrations for determination of Ki for competitive inhibition. (c) Plot to determine the inhibitory mechanism.

[3] = tested on: B16F10 murine melanoma cells; experiment: Cell proliferation assay (MTT); format: cell-based; settings: read-out: Inhibition of Cell Proliferation IC50
Method: In the presence of α-MSH, the cells were treated with the inhibitors after 24 h. […] Kojic acid was used as a positive control, and dimethyl sulfoxide (DMSO) was used as a solvent control. Melanin content was measured spectrophotometrically at 405 nm. […] Cells were maintained in 5% CO2 at 37 °C. Cell viability was estimated using the MTT colorimetric assay as described in our previous papers and by Bellei et al.. […] Kojic acid and DMSO were used as controls. MTT was added to wells (0.625 mg/mL, Sigma-Aldrich, Taufkirchen, Germany) for the last 4 h. Then, lysing buffer was added to dissolve insoluble formazan. The absorbance was measured (λ = 570 nm) using a Thermo Lab Multiscan RC microplate reader.

[4] = tested on: B16F10 murine melanoma cells; experiment: Measurement of melanin production in α-MSH-stimulated cells; format: cell-based; settings: for IC50: B16F10 cells stimulated with α-MSH 100 nM, 48 h with inhibitor, absorbance 405 nm, read-out: Inhibition of Melanin Production IC50
Method: In the presence of α-MSH, the cells were treated with the inhibitors after 24 h. […] Kojic acid was used as a positive control, and dimethyl sulfoxide (DMSO) was used as a solvent control. Melanin content was measured spectrophotometrically at 405 nm. […] Cells were maintained in 5% CO2 at 37 °C. […] The cells were seeded into a 96-well plate (5 × 10^3 cells/well) and stimulated with α-MSH (100 nM, Sigma-Aldrich, Taufkirchen, Germany). […] After 48 h of incubation with inhibitors, cells were solubilized in 1 N sodium hydroxide (1 N, 60 °C, 2 h). In order to measure melanin content, absorbance was measured (λ = 405 nm) using a microplate reader.

C/C(=N\NC(N)=S)c1ccc([N+](=O)[O-])cc1 [TSC 12, (E)-4’-Nitroacetophenone thiosemicarbazone] was tested, and the “Ratio of IC50 of Kojic Acid to IC50 of TSC” value (“Ratio of IC50 of Kojic Acid” for short) (mushroom tyrosinase [1]) was 12.4, the “Inhibition Mechanism” value (mushroom tyrosinase [2]) was “reversible” and the “Inhibition Type” value (mushroom tyrosinase [2]) was “mixed”. The IC50 ([3]; Mus musculus, B16-F10, 48 h) was 137 µM.

C/C(=N\NC(N)=S)c1cccc(N)c1 [TSC 5, (E)-3’-Aminoacetophenone thiosemicarbazone] was tested, and the IC50 (mushroom tyrosinase [1]) was 0.65 µM, the “Ratio of IC50 of Kojic Acid” value (mushroom tyrosinase [1]) was 30.6 and the “Inhibition Mechanism” value (mushroom tyrosinase [2]) was “reversible”. The “Inhibition Type” value (mushroom tyrosinase [2]) was “mixed-type”, the Ki (mushroom tyrosinase [2]) was 0.6 ± 0.1 µM and the IC50 ([4]; Mus musculus, B16-F10, 48 h) was 88.9 µM. The IC50 ([3]; Mus musculus, B16-F10, 48 h) was 150 µM.

With C[S+](C)[O-] [DMSO, dimethyl sulfoxide] the IC50 [4] was 8020 µM and the IC50 ([3]; 48 h) was 166 µM.

In the case of C/C(=N\NC(N)=S)c1cccc([N+](=O)[O-])c1 [TSC 11, (E)-3’-Nitroacetophenone thiosemicarbazone], the IC50 (mushroom tyrosinase [1]) is reported as 14.2 µM, the “Ratio of IC50 of Kojic Acid” value (mushroom tyrosinase [1]) is reported as 1.4 and the “Inhibition Mechanism” value (mushroom tyrosinase [2]) is reported as “reversible”. The “Inhibition Type” value (mushroom tyrosinase [2]; listed as Compound 11) was “competitively”, the Ki (mushroom tyrosinase [2]) was 0.4 ± 0.02 µM and the IC50 ([4]; Mus musculus, B16-F10, 48 h) was 44 µM. For the same molecule, the IC50 ([3]; Mus musculus, B16-F10, 48 h) was 44.8 µM.

C/C(=N\NC(N)=S)c1cccc(O)c1 [TSC 8, (E)-3’-Hydroxyacetophenone thiosemicarbazone] was tested, and the IC50 (mushroom tyrosinase [1]) was 0.95 µM, the “Ratio of IC50 of Kojic Acid” value (mushroom tyrosinase [1]) was 20 and 20.9 and the “Inhibition Mechanism” value (mushroom tyrosinase [2]) was “reversible”. For the same molecule, the “Inhibition Type” value (mushroom tyrosinase [2]) was “mixed-type”, the Ki (mushroom tyrosinase [2]) was 0.6 ± 0.08 µM and the IC50 ([4]; Mus musculus, B16-F10, 48 h) was 69.5 µM. The IC50 ([3]; Mus musculus, B16-F10, 48 h) was 103 µM.

With C/C(=N\NC(N)=S)c1ccc(N)cc1 [TSC 6, (E)-4’-Aminoacetophenone thiosemicarbazone] the “Inhibition Mechanism” value (mushroom tyrosinase [2]) was “reversible”, the “Inhibition Type” value (mushroom tyrosinase [2]) was “competitively” and the Ki (mushroom tyrosinase [2]) was 0.2 ± 0.06 µM. For the same molecule, the IC50 ([4]; Mus musculus, B16-F10, 48 h) was 139 µM and the IC50 ([3]; Mus musculus, B16-F10, 48 h) was 155 µM.

With C/C(=N/NC(N)=S)c1ccccc1 [Acetophenone TSC, acetophenone thiosemicarbazones] the IC50 (mushroom tyrosinase [1]) was 1.5 µM and the “Ratio of IC50 of Kojic Acid” value (mushroom tyrosinase [1]) was 13.2.

For C/C(=N\NC(N)=S)c1ccccc1[N+](=O)[O-] [TSC 10, (E)-2’-Nitroacetophenone thiosemicarbazone], the IC50 (mushroom tyrosinase [1]) was over 150 µM, the “Ratio of IC50 of Kojic Acid” value (mushroom tyrosinase [1]) was 0.1 and the “Inhibition Mechanism” value (mushroom tyrosinase [2]) was “reversible”. For the same molecule, the “Inhibition Type” value (mushroom tyrosinase [2]) was “mixed-type”, the Ki (mushroom tyrosinase [2]) was 8.6 ± 0.5 µM and the IC50 ([4]; Mus musculus, B16-F10, 48 h) was 77.8 µM. The IC50 ([3]; Mus musculus, B16-F10, 48 h) was 93.2 µM.

In the case of COc1cccc(/C(C)=N/NC(N)=S)c1 [TSC 2, (E)-3’-Methoxyacetophenone thiosemicarbazone], the IC50 (mushroom tyrosinase [1]) is reported as 1.9 µM, the “Ratio of IC50 of Kojic Acid” value (mushroom tyrosinase [1]) is reported as 10.5 and the “Inhibition Mechanism” value (mushroom tyrosinase [2]) is reported as “reversible”. For the same molecule, the “Inhibition Type” value (mushroom tyrosinase [2]) was “mixed-type”, the Ki (mushroom tyrosinase [2]) was 1 ± 0.1 µM and the IC50 ([3]; Mus musculus, B16-F10, 48 h) was 22.4 µM.

In the case of C/C(=N\NC(N)=S)c1ccc(O)cc1 [TSC 9, (E)-4’-Hydroxyacetophenone thiosemicarbazone], the IC50 (mushroom tyrosinase [1]) is reported as 0.8 µM, the “Ratio of IC50 of Kojic Acid” value (mushroom tyrosinase [1]) is reported as 20 and 24.9 and the “Inhibition Mechanism” value (mushroom tyrosinase [2]) is reported as “reversible”. The “Inhibition Type” value (mushroom tyrosinase [2]) was “competitive”, the “Inhibition Type” value (mushroom tyrosinase [2]; listed as Compound 9) was “competitively” and the Ki (mushroom tyrosinase [2]) was 0.6 ± 0.06 µM. The “Ratio of IC50 for the inhibition of B16F10 cell proliferation to IC50 for the inhibition of melanin production” value ([4]; B16F10 cells) was 4.6, the IC50 [4] was 25.2 µM and the IC50 ([4]; Mus musculus, B16-F10, 48 h) was under 30 µM. It also gave an IC50 ([3]; Mus musculus, B16-F10, 48 h) of 115 µM.

NC(=S)N/N=C\c1ccccc1 [Benzaldehyde TSC, benzaldehyde thiosemicarbazone, reference compound] was tested, and the IC50 (mushroom tyrosinase [1]) was 3.4 µM and the “Ratio of IC50 of Kojic Acid” value (mushroom tyrosinase [1]) was 5.6.

COc1ccccc1C(C)=NNC(N)=S [TSC 1, 2’-methoxyacetophenone thiosemicarbazone] was tested, and the IC50 (mushroom tyrosinase [1]) was 12.2 µM, the “Ratio of IC50 of Kojic Acid” value (mushroom tyrosinase [1]) was 1.6 and the “Inhibition Mechanism” value (mushroom tyrosinase [2]) was “reversible”. For the same molecule, the “Inhibition Type” value (mushroom tyrosinase [2]) was “mixed-type”, the Ki (mushroom tyrosinase [2]) was 5 ± 1.4 µM and the IC50 ([4]; Mus musculus, B16-F10, 48 h) was 39.2 µM. For the same molecule, the IC50 ([3]; Mus musculus, B16-F10, 48 h) was 45.2 µM.

In the case of O=c1cc(CO)occ1O [Kojic acid, reference compound], the “Inhibition Mechanism” value (mushroom tyrosinase [2]) is reported as “reversible”, the “Inhibition Type” value (mushroom tyrosinase [2]) is reported as “mixed” and the IC50 ([4]; Mus musculus, B16-F10, 48 h) is reported as 114 µM. For the same molecule, the IC50 ([3]; Mus musculus, B16-F10, 48 h) was 153 µM.

For COc1ccc(/C(C)=N/NC(N)=S)cc1 [TSC 3, (E)-4’-Methoxyacetophenone thiosemicarbazone], the IC50 (mushroom tyrosinase [1]) was 1.8 µM, the “Ratio of IC50 of Kojic Acid” value (mushroom tyrosinase [1]) was 11.1 and the “Inhibition Mechanism” value (mushroom tyrosinase [2]) was “reversible”. The “Inhibition Type” value (mushroom tyrosinase [2]) was “competitive”, the “Inhibition Type” value (mushroom tyrosinase [2]; listed as Compound 3) was “competitively” and the Ki (mushroom tyrosinase [2]) was 0.6 ± 0.01 µM. The IC50 ([3]; Mus musculus, B16-F10, 48 h) was 20.3 µM.

For CC(=NNC(N)=S)c1ccccc1O [TSC 7, 2’-hydroxyacetophenone thiosemicarbazone], the IC50 (mushroom tyrosinase [1]) was 1.2 µM, the “Ratio of IC50 of Kojic Acid” value (mushroom tyrosinase [1]) was 16.5 and the “Inhibition Mechanism” value (mushroom tyrosinase [2]) was “reversible”. For the same molecule, the “Inhibition Type” value (mushroom tyrosinase [2]) was “mixed-type”, the Ki (mushroom tyrosinase [2]) was 0.7 ± 0.1 µM and the IC50 [4] was 21.7 µM. For the same molecule, the IC50 ([4]; Mus musculus, B16-F10, 48 h) was under 30 µM and the IC50 ([3]; Mus musculus, B16-F10, 48 h) was 37.3 µM.

In the case of CC(=NNC(N)=S)c1ccccc1N [TSC 4, 2’-aminoacetophenone thiosemicarbazone], the IC50 (mushroom tyrosinase [1]) is reported as 11.3 µM, the “Ratio of IC50 of Kojic Acid” value (mushroom tyrosinase [1]) is reported as 1.8 and the “Inhibition Mechanism” value (mushroom tyrosinase [2]) is reported as “reversible”. The “Inhibition Type” value (mushroom tyrosinase [2]) was “mixed-type”, the Ki (mushroom tyrosinase [2]) was 8 ± 0.9 µM and the IC50 ([4]; Mus musculus, B16-F10, 48 h) was 208 µM.
